Measurements published in US7888363B2, “Viral polymerase inhibitors” (Boehringer Ingelheim International GmbH, priority 2003, dated 2011).

Target: hepatitis C virus RNA dependant polymerase (NS5B) (Hepatitis C virus genotype 1b, UniProt P26663)
Assay: Inhibition of NS5B RNA dependent RNA polymerase activity
Assay type: biochemical
Settings: Table 1; HCV NS5B polymerase
Method: A suitable assay is described in the examples.
Inhibition of NS5B RNA Dependent RNA Polymerase Activity
The compounds of the invention were tested for inhibitory activity against the hepatitis C virus RNA dependant polymerase (NS5B), according to protocol described in WO 03/010141

Sequence of hepatitis C virus RNA dependant polymerase (NS5B) (P26663 2420-3010): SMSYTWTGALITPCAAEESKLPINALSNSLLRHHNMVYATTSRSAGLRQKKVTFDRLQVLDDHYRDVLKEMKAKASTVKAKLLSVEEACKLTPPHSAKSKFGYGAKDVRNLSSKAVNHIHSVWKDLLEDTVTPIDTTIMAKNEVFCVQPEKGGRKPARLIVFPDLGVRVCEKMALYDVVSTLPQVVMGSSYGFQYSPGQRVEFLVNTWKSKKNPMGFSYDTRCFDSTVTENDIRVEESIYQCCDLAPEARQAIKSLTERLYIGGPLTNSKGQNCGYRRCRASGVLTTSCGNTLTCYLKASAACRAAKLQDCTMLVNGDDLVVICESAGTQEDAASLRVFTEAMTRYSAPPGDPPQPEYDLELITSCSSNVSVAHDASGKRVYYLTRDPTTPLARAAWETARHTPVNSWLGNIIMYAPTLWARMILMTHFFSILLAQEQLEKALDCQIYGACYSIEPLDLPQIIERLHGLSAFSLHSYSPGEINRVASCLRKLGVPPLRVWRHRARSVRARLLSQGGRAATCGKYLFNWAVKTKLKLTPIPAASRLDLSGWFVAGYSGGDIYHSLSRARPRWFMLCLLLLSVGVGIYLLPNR

`O=C(O)c1ccc2c(C3CCCCC3)c(-c3ccoc3)n(CC(=O)N3CCC[C@@H]3C(=O)O)c2c1` [Example 1123] and `CC1CCN(C(=O)Cn2c(-c3ccoc3)c(C3CCCCC3)c3ccc(C(=O)O)cc32)CC1` [Example 1101] fall in the same range of IC50: 200 to 1000 nM for the first, 200 to 1000 nM for the second.

`O=C(Cn1c(-c2ccoc2)c(C2CCCCC2)c2ccc(C(=O)O)cc21)Nc1ccccc1` [Example 1060] and `CN(C)c1ccc(NC(=O)Cn2c(-c3ccoc3)c(C3CCCCC3)c3ccc(C(=O)O)cc32)cc1` [Example 1105] fall in the same range of IC50: 200 to 1000 nM for the first, 200 to 1000 nM for the second.

`CCN1CCN(C(=O)Cn2c(-c3ccoc3)c(C3CCCCC3)c3ccc(C(=O)O)cc32)CC1` [Example 1120] and `CN(C)C1CCN(C(=O)Cn2c(-c3ccoc3)c(C3CCCCC3)c3ccc(C(=O)O)cc32)C1` (centres unmarked) [Example 1131] cannot be ordered by IC50: < 200 nM for the first, < 200 nM for the second.

`CC(C)(NC(=O)Cn1c(-c2ccoc2)c(C2CCCCC2)c2ccc(C(=O)O)cc21)C(=O)Nc1ccc(-c2nc(C(=O)O)cs2)cc1` [Example 1052] and `O=C(O)/C=C/c1ccc(NC(=O)[C@]2(NC(=O)Cn3c(-c4ccoc4)c(C4CCCCC4)c4ccc(C(=O)O)cc43)CCNC2)cc1` [Example 1077] cannot be ordered by IC50: < 200 nM for the first, < 200 nM for the second.

`O=C(O)CNNC(=O)Cn1c(-c2ccoc2)c(C2CCCCC2)c2ccc(C(=O)O)cc21` [Example 1068] and `CN(CC(=O)O)C(=O)Cn1c(-c2ccoc2)c(C2CCCCC2)c2ccc(C(=O)O)cc21` [Example 1072] cannot be ordered by IC50: < 200 nM for the first, < 200 nM for the second.

First: CCCN(CCC)C(=O)Cn1c(-c2ccoc2)c(C2CCCCC2)c2ccc(C(=O)O)cc21 [Example 1011]
Second: CN(C)CCCN(C)C(=O)Cn1c(-c2ccoc2)c(C2CCCCC2)c2ccc(C(=O)O)cc21 [Example 1019]
The IC50 of the first is higher: 200 to 1000 nM for the first, < 200 nM for the second.

First: O=C(Cn1c(-c2ccoc2)c(C2CCCCC2)c2ccc(C(=O)O)cc21)N[C@@H](Cc1c[nH]c2ccc(O)cc12)C(=O)O [Example 1081]
Second: COc1ccc(CNC(=O)Cn2c(-c3ccoc3)c(C3CCCCC3)c3ccc(C(=O)O)cc32)cc1 [Example 1064]
The IC50 of the first is lower: < 200 nM for the first, 1000 to 10000 nM for the second.

First: CN(C)C(=O)Cn1c(-c2cc3ccccc3s2)c(C2CCCCC2)c2ccc(C(=O)O)cc21 [Example 1046]
Second: CN(C)C(=O)Cn1c(-c2ccccc2)c(C2CCCCC2)c2ccc(C(=O)O)cc21 [Example 1025]
The IC50 of the first is higher: 1000 to 10000 nM for the first, < 200 nM for the second.

`O=C(O)c1ccc2c(C3CCCCC3)c(-c3ccsc3)n(CC(=O)N3CCOCC3)c2c1` [Example 1027] and `O=C(O)c1ccc2c(C3CCCCC3)c(-c3cccs3)n(CC(=O)N3CCOCC3)c2c1` [Example 1033] cannot be ordered by IC50: < 200 nM for the first, < 200 nM for the second.

`CC(C)(C)C(=O)Cn1c(-c2ccoc2)c(C2CCCCC2)c2ccc(C(=O)O)cc21` [Example 1001] and `NC(=O)Cn1c(-c2ccoc2)c(C2CCCCC2)c2ccc(C(=O)O)cc21` [Example 1065] fall in the same range of IC50: 200 to 1000 nM for the first, 200 to 1000 nM for the second.

First: Nc1cccc(-c2c(C3CCCCC3)c3ccc(C(=O)O)cc3n2CC(=O)N2CCC(N3CCCC3)CC2)n1 [Example 1050]
Second: CCN(C(=O)Cn1c(-c2ccoc2)c(C2CCCCC2)c2ccc(C(=O)O)cc21)C1CCCCC1 [Example 1093]
The IC50 of the first is lower: < 200 nM for the first, 200 to 1000 nM for the second.

Same assay, conditions: Table 2; HCV NS5B polymerase

Compared with `N#Cc1ccccc1S(=O)(=O)NC(=O)c1ccc2c(C3CCCCC3)c(-c3ccoc3)n(CC(=O)N3CCOCC3)c2c1` [Example 2032], `O=C(NS(=O)(=O)c1cccc2cccnc12)c1ccc2c(C3CCCCC3)c(-c3ccoc3)n(CC(=O)N3CCOCC3)c2c1` [Example 2024] is lower in IC50: 200 to 1000 nM for the first, < 200 nM for the second.

`O=C(NS(=O)(=O)c1ccc(Cl)s1)c1ccc2c(C3CCCCC3)c(-c3ccoc3)n(CC(=O)N3CCOCC3)c2c1` [Example 2004] and `O=C(NS(=O)(=O)c1cccc2nsnc12)c1ccc2c(C3CCCCC3)c(-c3ccoc3)n(CC(=O)N3CCOCC3)c2c1` [Example 2035] cannot be ordered by IC50: < 200 nM for the first, < 200 nM for the second.

`Cc1c(S(=O)(=O)NC(=O)c2ccc3c(C4CCCCC4)c(-c4ccoc4)n(CC(=O)N4CCOCC4)c3c2)cnn1-c1ccccc1` [Example 2042] and `Cc1nn(C)c(Cl)c1S(=O)(=O)NC(=O)c1ccc2c(C3CCCCC3)c(-c3ccoc3)n(CC(=O)N3CCOCC3)c2c1` [Example 2033] cannot be ordered by IC50: < 200 nM for the first, < 200 nM for the second.

`Cc1noc(C)c1S(=O)(=O)NC(=O)c1ccc2c(C3CCCCC3)c(-c3ccoc3)n(CC(=O)N3CCOCC3)c2c1` [Example 2034] and `O=C(NS(=O)(=O)C1CC1)c1ccc2c(C3CCCCC3)c(-c3ccoc3)n(CC(=O)N3CCOCC3)c2c1` [Example 2026] cannot be ordered by IC50: < 200 nM for the first, < 200 nM for the second.

`CC(C)c1cc(C(C)C)c(S(=O)(=O)NC(=O)c2ccc3c(C4CCCCC4)c(-c4ccoc4)n(CC(=O)N4CCOCC4)c3c2)c(C(C)C)c1` [Example 2043] showed an IC50 of 200 to 1000 nM.

Same assay, conditions: Table 3; HCV NS5B polymerase

`CN1CCN(C(=O)Cn2c(-c3ccccn3)c(C3CCCCC3)c3ccc(C(=O)NC4(C(=O)Nc5ccc(/C=C/C(=O)O)cc5)CCC4)cc32)CC1` [Example 3007] and `O=C(O)C=Cc1ccc(NC(=O)C2(NC(=O)c3ccc4c(C5CCCC5)c(-c5ccccn5)n(CC(=O)N5CCCCC5)c4c3)CCC2)cc1` [Example 3011] cannot be ordered by IC50: < 200 nM for the first, < 200 nM for the second.

Same assay, conditions: Table 4; class ranges

`CN1CCC(NC(=O)c2ccc3c(C4CCCCC4)c(-c4ccoc4)n(CC(=O)N4CCOCC4)c3c2)(c2nc3ccc(C=CC(=O)O)cc3[nH]2)C1` (centres unmarked) [Example 4069] and `CN1CCC(NC(=O)c2ccc3c(C4CCCC4)c(-c4ccoc4)n(CC(=O)N4CCOCC4)c3c2)(c2nc3ccc(C=CC(=O)O)cc3[nH]2)C1` (centres unmarked) [Example 4068] cannot be ordered by IC50: < 200 nM for the first, < 200 nM for the second.

`CN1CCN(C(=O)Cn2c(-c3ccoc3)c(C3CCCCC3)c3ccc(C(=O)NCc4ccc(F)cc4)cc32)CC1` [Example 4022] and `CN1CCN(C(=O)Cn2c(-c3ccoc3)c(C3CCCCC3)c3ccc(C(=O)NCc4ccccc4)cc32)CC1` [Example 4021] fall in the same range of IC50: 200 to 1000 nM for the first, 200 to 1000 nM for the second.

`CNC(=O)c1ccc2c(C3CCCCC3)c(-c3ccoc3)n(CC(=O)N3CCOCC3)c2c1` [Example 4049] and `CNC(=O)c1ccc2c(C3CCCCC3)c(-c3ccoc3)n(CC(=O)N3CCN(C)CC3)c2c1` [Example 4028] fall in the same range of IC50: 200 to 1000 nM for the first, 200 to 1000 nM for the second.

First: CC(C)(NC(=O)c1ccc2c(C3CCCCC3)c(-c3ccoc3)n(CC(=O)N3CCC(N4CCCC4)CC3)c2c1)c1ccccc1 [Example 4060]
Second: CCc1nc(C2(NC(=O)c3ccc4c(C5CCCCC5)c(-c5ccoc5)n(CC(=O)N5CCC(N6CCCC6)CC5)c4c3)CCC2)cs1 [Example 4107]
The IC50 of the first is higher: 200 to 1000 nM for the first, < 200 nM for the second.

`O=C(O)C=Cc1ccc2nc(C3(NC(=O)c4ccc5c(C6CCCC6)c(-c6ccoc6)n(CC(=O)N6CCOCC6)c5c4)CCC3)[nH]c2c1` [Example 4070] and `Cn1c(C2(NC(=O)c3ccc4c(C5CCCCC5)c(-c5ccoc5)n(CC(N)=O)c4c3)CCC2)nc2ccc(C=CC(=O)O)cc21` [Example 4100] cannot be ordered by IC50: < 200 nM for the first, < 200 nM for the second.

First: CN(C)C(=O)C1(NC(=O)c2ccc3c(C4CCCCC4)c(-c4ccoc4)n(CC(=O)N4CCOCC4)c3c2)CCCC1 [Example 4097]
Second: O=C(NC1(C(=O)O)CCCC1)c1ccc2c(C3CCCCC3)c(-c3ccoc3)n(CC(=O)N3CCOCC3)c2c1 [Example 4074]
The IC50 of the first is lower: < 200 nM for the first, 200 to 1000 nM for the second. The first is the more potent here.

First: Cc1c(C2(NC(=O)c3ccc4c(C5CCCCC5)c(-c5ccoc5)n(CC(=O)N5CCOCC5)c4c3)CCC2)oc2ccc(C(=O)O)cc12 [Example 4088]
Second: C[C@@H](NC(=O)c1ccc2c(C3CCCCC3)c(-c3ccoc3)n(CC(=O)N3CCOCC3)c2c1)c1ccccc1 [Example 4007]
The IC50 of the first is lower: < 200 nM for the first, 200 to 1000 nM for the second.

`CN1CCN(C(=O)Cn2c(-c3ccoc3)c(C3CCCCC3)c3ccc(C(=O)NCCN4CCOCC4)cc32)CC1` [Example 4014] and `CN(C)CCNC(=O)c1ccc2c(C3CCCCC3)c(-c3ccoc3)n(CC(=O)N3CCN(C)CC3)c2c1` [Example 4025] fall in the same range of IC50: 200 to 1000 nM for the first, 200 to 1000 nM for the second.

`CC(C)C(CO)NC(=O)c1ccc2c(C3CCCCC3)c(-c3ccoc3)n(CC(=O)N3CCN(C)CC3)c2c1` (centres unmarked) [Example 4012] and `CCN1CCCC1CNC(=O)c1ccc2c(C3CCCCC3)c(-c3ccoc3)n(CC(=O)N3CCN(C)CC3)c2c1` (centres unmarked) [Example 4010] fall in the same range of IC50: 200 to 1000 nM for the first, 200 to 1000 nM for the second.

`CNC(=O)c1ccc2c(C3CCCCC3)c(-c3ccoc3)n(CC(=O)N(C)C)c2c1` [Example 4056] was tested, and the IC50 was 200 to 1000 nM.

Same assay, conditions: Table 5; HCV NS5B polymerase

`CC(C(=O)N(C)C)n1c(-c2ccoc2)c(C2CCCCC2)c2ccc(C(=O)O)cc21` (centres unmarked) [Example 5009] and `CC(C)=CCn1c(-c2ccoc2)c(C2CCCCC2)c2ccc(C(=O)O)cc21` [Example 5006] fall in the same range of IC50: 1000 to 10000 nM for the first, 1000 to 10000 nM for the second.

Same assay, conditions: Table 7; class ranges

`O=C(NCCN1CCCC1)c1ccc2c(c1)c(C1CCCCC1)c(-c1ccoc1)n2CC(=O)N1CCC(N2CCCC2)CC1` [Example 7014] and `O=C(NCCN1CCNC1=O)c1ccc2c(c1)c(C1CCCCC1)c(-c1ccoc1)n2CC(=O)N1CCC(N2CCCC2)CC1` [Example 7044] fall in the same range of IC50: 1000 to 10000 nM for the first, 1000 to 10000 nM for the second.

`CC(CNC(=O)c1ccc2c(c1)c(C1CCCCC1)c(-c1ccoc1)n2CC(=O)N1CCC(N2CCCC2)CC1)c1ccccc1` (centres unmarked) [Example 7030] and `CN(CCc1ccccn1)C(=O)c1ccc2c(c1)c(C1CCCCC1)c(-c1ccoc1)n2CC(=O)N1CCC(N2CCCC2)CC1` [Example 7020] fall in the same range of IC50: 1000 to 10000 nM for the first, 1000 to 10000 nM for the second.

`O=C(Nc1ccc(N2CCOCC2)cc1)c1ccc2c(c1)c(C1CCCCC1)c(-c1ccoc1)n2CC(=O)N1CCC(N2CCCC2)CC1` [Example 7018] and `O=C(Nc1ccc(CCO)cc1)c1ccc2c(c1)c(C1CCCCC1)c(-c1ccoc1)n2CC(=O)N1CCC(N2CCCC2)CC1` [Example 7024] fall in the same range of IC50: 1000 to 10000 nM for the first, 1000 to 10000 nM for the second.

`CN(C)C(=O)c1ccc2c(c1)c(C1CCCCC1)c(-c1ccoc1)n2CC(=O)N1CCC(N2CCCC2)CC1` [Example 7033] and `O=C(NCCOCCO)c1ccc2c(c1)c(C1CCCCC1)c(-c1ccoc1)n2CC(=O)N1CCC(N2CCCC2)CC1` [Example 7059] fall in the same range of IC50: 1000 to 10000 nM for the first, 1000 to 10000 nM for the second.

`O=C(NCCc1c[nH]cn1)c1ccc2c(c1)c(C1CCCCC1)c(-c1ccoc1)n2CC(=O)N1CCC(N2CCCC2)CC1` [Example 7015] and `CC(C)CC(NC(=O)c1ccc2c(c1)c(C1CCCCC1)c(-c1ccoc1)n2CC(=O)N1CCC(N2CCCC2)CC1)C(N)=O` (centres unmarked) [Example 7046] fall in the same range of IC50: 1000 to 10000 nM for the first, 1000 to 10000 nM for the second.

`COc1cc2c(C3CCCCC3)c(-c3ccoc3)n(CC(=O)N(C)C)c2cc1C(=O)O` [Example 7006] gave an IC50 of 200 to 1000 nM.
